Laboratory results taken from patent publication US20230165835A1, “METHODS OF TREATING ACUTE LUNG INJURY USING EBSELEN” (SOUND PHARMACEUTICALS INC., priority 2020, published 2023).
Entries after “also recorded” stand apart in the source; their conditions may differ.

Key:
[1] = Study 6.5: ebselen in moderate to severe COVID-19 at high risk of respiratory failure; type: in vivo, human; details: 400 to 600 mg BID up to 21 to 28 days
[2] = system: Vero E6 cells; assay: Cytotoxicity / cell viability in Vero E6 cells; type: cell-based
[3] = Cystic fibrosis trial: clinical chemistry, nephrotoxicity, tolerability; type: in vivo, human; details: for Serum Creatinine Mean (SD): baseline 0.77 (0.24); for Blood Urea Nitrogen Mean (SD): baseline 12.81 (4.73); for Bilirubin (Total) / Creatinine / Magnesium / Phosphorus / Albumin / Potassium / Uric Acid / Total Protein / Calcium / BUN / AST/SGOT / ALT/SGPT / GGT / Bicarbonate / Triglyceride / Alkaline Phosphatase / Glucose / Chloride / Total Cholesterol / Sodium / LDH: ITT Population; for Bilirubin (Total): Screening/Baseline 0.46; for Creatinine: Screening/Baseline 0.77; for Magnesium: Screening/Baseline 2.11; for Phosphorus: Screening/Baseline 3.62; for Albumin: Screening/Baseline 3.80; for Potassium: Screening/Baseline 4.33; for Uric Acid: Screening/Baseline 5.63; for Total Protein: Screening/Baseline 7.17; for Calcium: Screening/Baseline 8.84; for BUN: Screening/Baseline 12.81; for AST/SGOT: Screening/Baseline 16.86; for ALT/SGPT: Screening/Baseline 17.05; for GGT: Screening/Baseline 22; for Bicarbonate: Screening/Baseline 26.05; for Triglyceride: Screening/Baseline 78.33; for Alkaline Phosphatase: Screening/Baseline 97.71; for Glucose: Screening/Baseline 101.24; for Chloride: Screening/Baseline 101.95; for Total Cholesterol: Screening/Baseline 126.43; for Sodium: Screening/Baseline 135.71; for LDH: Screening/Baseline 161.48
Method: (§1) Thirty of 80 participants were enrolled starting in January 2019. They were Cystic fibrosis patients ages 18-70 that had acute pulmonary exacerbation or acute respiratory infections that required treatment with IV tobramycin 10 mg/kg/d for 10-21 days. They were randomized into four groups (1:1:1:1) (0, 200, 400, or 600 BID) and treated for 21 days. There were four follow-up visits for safety (adverse events, spirometry, labs), and two follow-up visits for efficacy (audiometric and vestibular). The primary endpoint was a reduction in cochleotoxic change, and the secondary endpoints was a reduction in tinnitus or vertigo severity.

[4] = Meniere's Disease clinical study: auditory function; type: in vivo, human; details: exceeds reported improvements with corticosteroid treatment
Text: (§2) We have studied the efficacy of ebselen in a number of indications including the treatment of Meniere's Disease, and in the treatment of ototoxicity in cystic fibrosis (CF) patients. Ebselen has an anti-inflammatory mechanism of action that is distinct from that of a classic corticosteroid immunosuppressive agent which can be beneficial in the treatment of respiratory viral infections. […] In addition, our Phase 2b study in cystic fibrosis (CF) patients with Pseudomonas is continuing without any safety issues. […] Our results and analysis in these other clinical studies supports the use of ebselen in the subject methods of treating or preventing conditions associated with respiratory viral infections described herein.
(§3) The anti-inflammatory mechanism of action of ebselen is unique and distinct over that of a classic corticosteroid immunosuppressive agent. […] In addition, our Phase 2b study in CF patients with Pseudomonas is continuing without any safety issues.

[5] = Cystic fibrosis trial (IV tobramycin + SPI-1005 0/200/400/600 BID, 21 days): FEV1; type: in vivo, human
Method: as §1

[6] = Study 6.6: ebselen in severe COVID-19; type: in vivo, human; details: 400 or 800 mg BID for 14 days
[7] = system: 18 common microbes; assay: MIC assays against 18 common microbes (interference); type: cell-based; details: to support testing in CF patients
Text: as §2, §3

[8] = mice; Gu et al.; cited from earlier work
[9] = system: SARS-CoV-2; assay: Hamster model of SARS-CoV-2 disease transmission and progression, viral load (PFU); type: in vivo, Golden Syrian Hamsters
Method: 24 hours prior to nasal inoculation with SARS-CoV-2, Golden Syrian Hamsters were dosed with ebselen, saline and remdesivir at 15 mg/kg. Samples were taken from nares (PFU/swab) on days 1, 2 and 3, and from the nasal turbinates and cranial & caudal lung tissue (PFU/100 mg) on day 7.

[10] = Visit 3, end of tobramycin treatment
[11] = Visit 4, two weeks after end of tobramycin treatment
[12] = Visit 5, four weeks after end of tobramycin treatment

O=c1c2ccccc2[se]n1-c1ccccc1 [ebselen, 2-phenyl-1,2-benzisoselenazol-3(2H)-one]
time to clinical improvement (NIAID ordinal scale) [1]: effective to reduce time to at least a 2-grade improvement from baseline on the NIAID ordinal scale
cell viability at the EC50 [2]: 100%
effect on cell viability ([2]; ebselen: at ranges slightly higher than EC50): cell viability was decreased
CC50 ([2]; listed as ebselen (DMSO)): > 1000 µM
CC50 ([2]; listed as ebselen (EtOH)): > 100 µM
Serum Creatinine Mean (SD) ([3]; Visit 2, on tobramycin and study treatment, normal 0.49-1.44): 0.80 (0.22) mg/dl
Blood Urea Nitrogen Mean (SD) ([3]; Visit 2, on tobramycin and study treatment, normal 5-22): 14.68 (4.80) mg/dl
Bilirubin (Total) ([3]; Visit 2): 0.41
Creatinine ([3]; Visit 2): 0.80
Magnesium ([3]; Visit 2): 2.21
Phosphorus ([3]; Visit 2): 3.61
Albumin ([3]; Visit 2): 3.87
Potassium ([3]; Visit 2): 4.22
Uric Acid ([3]; Visit 2): 4.89
Total Protein ([3]; Visit 2): 7.17
Calcium ([3]; Visit 2): 8.86
BUN ([3]; Visit 2): 14.68
AST/SGOT ([3]; Visit 2): 26.45
ALT/SGPT ([3]; Visit 2): 31.41
GGT ([3]; Visit 2): 25
Bicarbonate ([3]; Visit 2): 26.73
Triglyceride ([3]; Visit 2): 114.82
Alkaline Phosphatase ([3]; Visit 2): 93.41
Glucose ([3]; Visit 2): 120.95
Chloride ([3]; Visit 2): 100.68
Total Cholesterol ([3]; Visit 2): 139.68
Sodium ([3]; Visit 2): 136.36
LDH ([3]; Visit 2): 165.45
Serum Creatinine Mean (SD) [3, 10]: 0.78 (0.20) mg/dl
Blood Urea Nitrogen Mean (SD) [3, 10]: 15.11 (5.56) mg/dl
Bilirubin (Total) ([3]; Visit 3): 0.45
Creatinine ([3]; Visit 3): 0.78
Magnesium ([3]; Visit 3): 2.19
Phosphorus ([3]; Visit 3): 3.68
Albumin ([3]; Visit 3): 4.05
Potassium ([3]; Visit 3): 4.25
Uric Acid ([3]; Visit 3): 5
Total Protein ([3]; Visit 3): 7.29
Calcium ([3]; Visit 3): 9.03
BUN ([3]; Visit 3): 15.11
AST/SGOT ([3]; Visit 3): 27.58
ALT/SGPT ([3]; Visit 3): 35.63
GGT ([3]; Visit 3): 28.32
Bicarbonate ([3]; Visit 3): 27.42
Triglyceride ([3]; Visit 3): 114.84
Alkaline Phosphatase ([3]; Visit 3): 90.16
Glucose ([3]; Visit 3): 102.53
Chloride ([3]; Visit 3): 100.68
Total Cholesterol ([3]; Visit 3): 151.89
Sodium ([3]; Visit 3): 136.05
LDH ([3]; Visit 3): 166.37
Serum Creatinine Mean (SD) [3, 11]: 0.78 (0.19) mg/dl
Blood Urea Nitrogen Mean (SD) [3, 11]: 14.94 (6.66) mg/dl
Bilirubin (Total) ([3]; Visit 4): 0.49
Creatinine ([3]; Visit 4): 0.78
Magnesium ([3]; Visit 4): 2.06
Phosphorus ([3]; Visit 4): 3.84
Albumin ([3]; Visit 4): 4.08
Potassium ([3]; Visit 4): 4.16
Uric Acid ([3]; Visit 4): 5.63
Total Protein ([3]; Visit 4): 7.49
Calcium ([3]; Visit 4): 9.12
BUN ([3]; Visit 4): 14.94
AST/SGOT ([3]; Visit 4): 18.22
ALT/SGPT ([3]; Visit 4): 20.44
GGT ([3]; Visit 4): 23.11
Bicarbonate ([3]; Visit 4): 25.94
Triglyceride ([3]; Visit 4): 96.06
Alkaline Phosphatase ([3]; Visit 4): 104.50
Glucose ([3]; Visit 4): 132.56
Chloride ([3]; Visit 4): 100.94
Total Cholesterol ([3]; Visit 4): 134.78
Sodium ([3]; Visit 4): 135.17
LDH ([3]; Visit 4): 158.83
Serum Creatinine Mean (SD) [3, 12]: 0.81 (0.24) mg/dl
Blood Urea Nitrogen Mean (SD) [3, 12]: 13.45 (6.49) mg/dl
Bilirubin (Total) ([3]; Visit 5): 0.46
Creatinine ([3]; Visit 5): 0.81
Magnesium ([3]; Visit 5): 2.16
Phosphorus ([3]; Visit 5): 3.72
Albumin ([3]; Visit 5): 3.98
Potassium ([3]; Visit 5): 4.25
Uric Acid ([3]; Visit 5): 5.62
Total Protein ([3]; Visit 5): 7.38
Calcium ([3]; Visit 5): 9.11
BUN ([3]; Visit 5): 13.45
AST/SGOT ([3]; Visit 5): 26.60
ALT/SGPT ([3]; Visit 5): 22.45
GGT ([3]; Visit 5): 20.65
Bicarbonate ([3]; Visit 5): 26.15
Triglyceride ([3]; Visit 5): 89.95
Alkaline Phosphatase ([3]; Visit 5): 101.70
Glucose ([3]; Visit 5): 119.05
Chloride ([3]; Visit 5): 101.80
Total Cholesterol ([3]; Visit 5): 137.60
Sodium ([3]; Visit 5): 136.45
LDH ([3]; Visit 5): 213.58
nephrotoxicity ([3]; after IV tobramycin and SPI-1005 or placebo treatment): no significant nephrotoxicity; also recorded: lack of nephrotoxicity
tolerability ([3]; human, in vivo, iv): well tolerated
auditory function (hearing loss, word recognition and tinnitus) [4]: improvement in auditory function; also recorded: improve auditory function
change in lung functioning (FEV1) ([5]; 2 and 4 weeks, cystic fibrosis patients on IV tobramycin, versus Part 1 observation study): improvement in lung functioning (FEV1) at both 2 and 4 weeks; also recorded: improved relative FEV1% predicted at 2 and 4 weeks
FEV1 score Mean (SD), 2 Week ([5]; pooled 0/200/400/600 BID groups, baseline 46.87 (13.68), n 17): 48.53 (14.57)
FEV1 score Mean (SD), 4 Week ([5]; pooled 0/200/400/600 BID groups, baseline 46.87 (13.68), n 19): 52.68 (22.99)
respiratory status / time to clinical improvement (WHO ordinal scale) [6]: effective to improve in respiratory status, and/or reduce time to at least a 2-grade improvement from baseline on the WHO ordinal scale
interference in MIC assays [7]: lack of interference
protection against tobramycin-induced ototoxicity, auditory brainstem responses [8]: otoprotective and neuroprotective properties
PFU/swab (nares) Day 1 ([9]; 15 mg/kg, 24 hours prior to nasal inoculation, saline 2.7E+04): 1.0E+04 PFU/swab
PFU/swab (nares) Day 3 ([9]; 15 mg/kg, 24 hours prior to nasal inoculation, saline 5.5E+02): 1.7E+02 PFU/swab
PFU/swab (nares) Day 2 ([9]; 15 mg/kg, 24 hours prior to nasal inoculation, saline 7.5E+03): 6.2E+03 PFU/swab
PFU/100 mg Cranial lung ([9]; 15 mg/kg, day 7, saline 4.9E+06): 2.3E+06 PFU/100 mg
PFU/100 mg Turbinates ([9]; 15 mg/kg, day 7, saline 5.5E+07): 3.6E+07 PFU/100 mg
PFU/100 mg Caudal lung ([9]; 15 mg/kg, day 7, saline 6.1E+06): 6.0E+06 PFU/100 mg
samples with lower counts compared to remdesivir ([9]; Table 2, six samples): 5 of 6
samples with lower counts compared to saline ([9]; Table 2, six samples): 6 of the 6
